Patent publication US20050176826A1, “Use of asc-1 inhibitors to treat neurological and psychiatric disorders” (H. Lundbeck A/S, priority 2002, published 2005)

Key:
NMDA receptor = NMDA receptor (Homo sapiens, UniProt Q05586); settings: versus glycine; cited from earlier work
human asc-1 = target: T1, human asc-1 (Homo sapiens, UniProt Q9NS82); assay: [3H]D-serine uptake into HEK293 cells expressing human asc-1; format: cell-based; settings: for inhibition of [3H]D-serine uptake (in words): HEK293 cells expressing the cloned asc-1
T1 construct: expressed in transfected cells; host or cells: HEK293 (ATCC CRL 1573), transient, vector pCI/neo
T1 sequence (Q9NS82 1-523): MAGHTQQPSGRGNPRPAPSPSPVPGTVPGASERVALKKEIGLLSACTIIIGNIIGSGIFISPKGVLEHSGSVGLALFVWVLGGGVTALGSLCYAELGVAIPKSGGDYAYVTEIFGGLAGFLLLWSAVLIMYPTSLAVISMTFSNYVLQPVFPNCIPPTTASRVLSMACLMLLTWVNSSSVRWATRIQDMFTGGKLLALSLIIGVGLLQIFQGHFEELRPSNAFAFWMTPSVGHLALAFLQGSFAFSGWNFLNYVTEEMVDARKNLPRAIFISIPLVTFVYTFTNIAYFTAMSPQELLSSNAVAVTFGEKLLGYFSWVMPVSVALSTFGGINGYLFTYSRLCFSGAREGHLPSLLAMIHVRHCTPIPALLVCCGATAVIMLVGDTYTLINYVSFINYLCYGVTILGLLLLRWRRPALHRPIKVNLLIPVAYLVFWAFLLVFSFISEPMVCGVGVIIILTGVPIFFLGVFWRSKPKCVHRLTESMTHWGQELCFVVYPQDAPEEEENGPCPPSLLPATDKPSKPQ
Method: Uptake was determined 2-4 days after the transfection.
(§1) Into cortical membranes: Cortex from male Wistar rats (150-200 g) was homogenized in 0.40 M sucrose and centrifuged at 1000×g for 10 min. […] Test compounds and tissue (1 mg orig. tissue/well) were added to 96 well plates and incubated with [^3H]-D-serine (specific activity=26.8 Ci/mmol, PerkinElmer, Cambridge, U.K.) (100 nM final concentration) for 5 min at 25° C. Samples were filtered on Unifilter GF/B glass fiber (Packard Biosciences, Meriden, Conn., USA) and washed with 3×0.25 mL assay buffer. Measurements of [^3H]-D-serine uptake into whole HEK293 cells expressing human asc-1 were performed in 96 well plates with similar conditions except that the cells were incubated for 15 min with radioligand and washed by dipping twice in cold assay buffer following incubation with radioligand. Accumulated radioactivity was extracted from the cells by adding 200 μL scintillation fluid/well (Ultima Gold, Packard Biosciences) and the plates were counted in a Microplates Scintillation Counter (Packard Biosciences). The D-serine uptake in samples containing test compounds was compared to controls without added compound or controls where transport via the asc-1 was inhibited by addition of e.g. 30 mM L-alanine.

[1] = target: T2, D-serine-sensitive Na+-independent transporter in rat cortical membranes (Rattus norvegicus, UniProt P63116); assay: Na+-independent [3H]D-serine uptake into rat cortical membranes (synaptosomes); format: biochemical; settings: for inhibition of [3H]D-serine uptake (in words): rat cortical synaptosomes
T2 construct: from tissue; host or cells: rat cerebral cortex membranes (P2 synaptosomes), male Wistar rats
T2 sequence (P63116 1-530): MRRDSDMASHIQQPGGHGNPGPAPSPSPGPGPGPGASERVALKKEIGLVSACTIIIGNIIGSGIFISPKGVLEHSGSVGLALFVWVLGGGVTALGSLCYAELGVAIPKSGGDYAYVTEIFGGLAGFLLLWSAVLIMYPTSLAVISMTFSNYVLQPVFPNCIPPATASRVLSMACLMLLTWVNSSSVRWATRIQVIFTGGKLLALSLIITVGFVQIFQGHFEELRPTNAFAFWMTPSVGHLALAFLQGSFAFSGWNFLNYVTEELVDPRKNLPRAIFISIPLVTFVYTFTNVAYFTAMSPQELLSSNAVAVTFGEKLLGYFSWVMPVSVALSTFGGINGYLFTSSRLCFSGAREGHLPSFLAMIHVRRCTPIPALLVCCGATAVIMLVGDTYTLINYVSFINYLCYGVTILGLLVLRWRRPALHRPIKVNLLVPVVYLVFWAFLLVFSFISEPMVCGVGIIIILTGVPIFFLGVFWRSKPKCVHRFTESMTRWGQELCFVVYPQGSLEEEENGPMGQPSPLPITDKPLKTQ
T2 sequence (Q794F9 1-527 partner): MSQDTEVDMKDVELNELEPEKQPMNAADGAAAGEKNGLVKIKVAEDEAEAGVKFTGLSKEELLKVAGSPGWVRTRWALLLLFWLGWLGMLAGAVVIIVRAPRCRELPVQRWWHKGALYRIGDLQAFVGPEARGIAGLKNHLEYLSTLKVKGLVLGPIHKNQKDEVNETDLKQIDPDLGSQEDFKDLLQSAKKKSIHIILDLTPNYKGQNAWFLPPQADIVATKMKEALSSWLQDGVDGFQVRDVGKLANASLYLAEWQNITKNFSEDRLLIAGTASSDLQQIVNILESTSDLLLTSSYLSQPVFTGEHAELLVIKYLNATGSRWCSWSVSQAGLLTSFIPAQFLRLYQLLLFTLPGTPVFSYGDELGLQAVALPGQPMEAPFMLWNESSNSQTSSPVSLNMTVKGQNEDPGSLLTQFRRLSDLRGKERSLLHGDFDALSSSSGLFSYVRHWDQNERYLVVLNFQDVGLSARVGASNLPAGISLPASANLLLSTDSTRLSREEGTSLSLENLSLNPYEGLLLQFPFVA
Method: as §1

## N[C@H](CO)C(=O)O [D-serine]
NMDA receptor
  co-agonist potency relative to glycine at the allosteric site on the NMDA receptor: 3-4 fold

## C[C@H](N)C(=O)O [L-alanine]
Human asc-1; 30 mM
  block of uptake via the asc system, including asc-1: completely block
Human asc-1
  inhibition of [3H]D-serine uptake (in words): effective inhibition
[1]; rat cortical membranes
  block of [3H]D-serine uptake into rat cortical membranes: completely blocks
[1]
  inhibition of [3H]D-serine uptake (in words): effective inhibition

## N=C(N)NCCC[C@H](N)C(=O)O [L-arginine]
Human asc-1
  inhibition of [3H]D-serine uptake (in words): Inactive
[1]
  inhibition of [3H]D-serine uptake (in words): Inactive

## NC(=O)C[C@H](N)C(=O)O [L-asparagine]
Human asc-1
  inhibition of [3H]D-serine uptake (in words): Less effective, but significant inhibition
[1]
  inhibition of [3H]D-serine uptake (in words): Less effective, but significant inhibition

## N[C@@H](CC(=O)O)C(=O)O [L-aspartate]
Human asc-1
  inhibition of [3H]D-serine uptake (in words): Inactive
[1]
  inhibition of [3H]D-serine uptake (in words): Inactive

## N[C@@H](CS)C(=O)O [L-cysteine]
Human asc-1
  inhibition of [3H]D-serine uptake (in words): effective inhibition
[1]
  inhibition of [3H]D-serine uptake (in words): effective inhibition

## N[C@@H](CSSC[C@H](N)C(=O)O)C(=O)O [L-cystine]
Human asc-1
  inhibition of [3H]D-serine uptake (in words): Inactive
[1]
  inhibition of [3H]D-serine uptake (in words): Inactive

## N[C@@H](CCC(=O)O)C(=O)O [L-glutamate]
Human asc-1
  inhibition of [3H]D-serine uptake (in words): Inactive
[1]
  inhibition of [3H]D-serine uptake (in words): Inactive

## NC(=O)CC[C@H](N)C(=O)O [L-glutamine]
Human asc-1
  inhibition of [3H]D-serine uptake (in words): Inactive
[1]
  inhibition of [3H]D-serine uptake (in words): Inactive

## NCC(=O)O [L-glycine]
Human asc-1
  inhibition of [3H]D-serine uptake (in words): effective inhibition
[1]
  inhibition of [3H]D-serine uptake (in words): effective inhibition

## N[C@@H](Cc1c[nH]cn1)C(=O)O [L-histidine]
Human asc-1
  inhibition of [3H]D-serine uptake (in words): Less effective, but significant inhibition
[1]
  inhibition of [3H]D-serine uptake (in words): Less effective, but significant inhibition

## CC[C@H](C)[C@H](N)C(=O)O [L-isoleucine]
Human asc-1
  inhibition of [3H]D-serine uptake (in words): Less effective, but significant inhibition
[1]
  inhibition of [3H]D-serine uptake (in words): Less effective, but significant inhibition

## CC(C)C[C@H](N)C(=O)O [L-leucine]
Human asc-1
  inhibition of [3H]D-serine uptake (in words): Less effective, but significant inhibition
[1]
  inhibition of [3H]D-serine uptake (in words): Less effective, but significant inhibition

## NCCCC[C@H](N)C(=O)O [L-lysine]
Human asc-1
  inhibition of [3H]D-serine uptake (in words): Inactive
[1]
  inhibition of [3H]D-serine uptake (in words): Inactive

## CSCC[C@H](N)C(=O)O [L-methionine]
Human asc-1
  inhibition of [3H]D-serine uptake (in words): Less effective, but significant inhibition
[1]
  inhibition of [3H]D-serine uptake (in words): Less effective, but significant inhibition

## N[C@@H](Cc1ccccc1)C(=O)O [L-phenylalanine]
Human asc-1
  inhibition of [3H]D-serine uptake (in words): Less effective, but significant inhibition
[1]
  inhibition of [3H]D-serine uptake (in words): Less effective, but significant inhibition

## O=C(O)[C@@H]1CCCN1 [L-proline]
Human asc-1
  inhibition of [3H]D-serine uptake (in words): Inactive
[1]
  inhibition of [3H]D-serine uptake (in words): Inactive

## N[C@@H](CO)C(=O)O [L-serine]
Human asc-1
  inhibition of [3H]D-serine uptake (in words): effective inhibition
[1]
  inhibition of [3H]D-serine uptake (in words): effective inhibition

## C[C@@H](O)[C@H](N)C(=O)O [L-threonine]
Human asc-1
  inhibition of [3H]D-serine uptake (in words): effective inhibition
[1]
  inhibition of [3H]D-serine uptake (in words): effective inhibition

## N[C@@H](Cc1ccc(O)cc1)C(=O)O [L-tyrosine]
Human asc-1
  inhibition of [3H]D-serine uptake (in words): Less effective, but significant inhibition
[1]
  inhibition of [3H]D-serine uptake (in words): Less effective, but significant inhibition

## CC(C)[C@H](N)C(=O)O [L-valine]
Human asc-1
  inhibition of [3H]D-serine uptake (in words): Less effective, but significant inhibition
[1]
  inhibition of [3H]D-serine uptake (in words): Less effective, but significant inhibition
